# Source: patent publication US10028943B2, “Method for treatment of radiologically-dense breasts” (priority 2015, dated 2018)
# Columns and labels:
# acute ischemic stroke = conditions: Shuaib et al. N Engl J Med 2007; cited from earlier work
# [1] = system: mammography-established dense breasts; test: Treatment of dense breasts: oral reduced TEMPOL in a person; type: in vivo, human
# Protocol: The reduced form of TEMPOL (TEMPOL-H) or equivalent pharmacologically-active spin label/spintrap is prepared by mixing together 2 grams of TEMPOL or a pharmacologically effective amount of another spin-label or spin trap such as methynitrosopropane, 20 grams of ascorbic acid or other reducing compound in 100 ml of distilled water. The formulation is used as is. The solution is slightly-bitter. The formulation can be administered diluted in a suitable liquid such as juice, tea, or coffee. An equivalent dry form as 10 mg of tempol mixed with 100 mg of ascorbic acid or equivalent reducing substance can be easily prepared in capsule or tablet form.
# One-half ml of the above solution, comprising 10 mg TEMPOL plus 100 mg ascorbic acid, was administered orally once a day to a 50 kg person with mammography-established dense breasts.
# breast density = test: Extemporaneous oral TEMPOL-H treatment for fibrocystic disease of breast; type: in vivo, human; conditions: patient
smiles,measurement,setting,value
"CC(C)(C)[N+]([O-])=Cc1ccc(S(=O)(=O)[O-])cc1S(=O)(=O)[O-].[Na+].[Na+] [NXY-059, disulfonyl PBN]",neuroprotective efficacy,acute ischemic stroke,"effective in animal models, but not in humans"
"CC1(C)CC(O)CC(C)(C)N1[O] [Tempol, 4-hydroxy-2,2,6,6-tetramethylpiperidin-1-yloxy]",efficacy of unreduced Tempol itself,[1]; same doses as reduced TEMPOL (10 mg),effective at the same doses
"CC1(C)CC(O)CC(C)(C)N1O [TEMPOL-H, the hydroxylamine reduced form of the nitroxide 4-hydroxy-2,2,6,6-tetramethylpiperidin-1-yloxy]",clinical signs and symptoms upon cessation of treatment,breast density; after cessation of treatment,reappeared within a few weeks
same,clinical signs and symptoms upon resumption of treatment,breast density; after resumption of treatment,again regressed
same,clearing of breast density,breast density; oral formulation of TEMPOL-H,significant clearing of breast density
same,mammographic clearing of breast densities,"[1]; 10 mg TEMPOL plus 100 mg ascorbic acid orally once a day, 50 kg person, first results after several weeks of treatment",significant mammographic clearing of breast densities
same,breast densities on cessation of treatment,[1]; cessation of treatment for a few weeks,eventually reappear on cessation of treatment for a few weeks
same,breast densities upon reinstatement of treatment,[1]; reinstatement of treatment,breast densities reoccur
